The test system of the assay is MOLM-13 cells. As to the kind of experiment: MOLM-13 cell viability assay (CellTiter-Glo). Conditions: Homo sapiens, MOLM-13, 72 h, 3 days, concentration of 1 μM, read-out: Antiproliferative Activity (inhibition, MOLM-13 cell viability). Type of assay: cell-based. In short, it runs like this: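 MOLM-13 AML cells in RPMI 1640 with 10% FBS, seeded at 2,500 cells/well and exposed to compound or DMSO for 3 days at 37° C, 5% CO2. Viability read as CellTiter-Glo luminescence after 10 min shaking.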
For orientation: ATP-based viability assays read luminescence as a measure of living cells.

The structures appear in SMILES notation.

The results in this text go back to patent US11345712B2, “Protein-targeting compounds and pharmaceutical compositions thereof, and their therapeutic applications” (BioTheryX, Inc., priority 2019, dated 2022).

On to `O=C1CCC(N2Cc3cc(CNC(=O)C(=O)c4ccncc4)ccc3C2=O)C(=O)N1` (stereo not drawn) [Compound I-103, N-((2-(2,6-dioxopiperidin-3-yl)-1-oxoisoindolin-5-yl)methyl)-2-oxo-2-(pyridin-4-yl)acetamide], for which the cytotoxicity at 1 µM was below 25%.
As to `Cc1cc(C(C)(C)C)cc(C)c1C(=O)C(=O)NCc1ccc2c(c1)CN(C1CCC(=O)NC1=O)C2=O` (stereo not drawn) [Compound I-104, 2-(4-(tert-butyl)-2,6-dimethylphenyl)-N-((2-(2,6-dioxopiperidin-3-yl)-1-oxoisoindolin-5-yl)methyl)-2-oxoacetamide], the cytotoxicity at 1 µM is above 80%.
With `Cc1cc(C(C)(C)C)cc(C)c1C(=O)C(=O)NCc1cccc2c1CN(C1CCC(=O)NC1=O)C2=O` (stereo not drawn) [Compound I-105, 2-(4-(tert-butyl)-2,6-dimethylphenyl)-N-((2-(2,6-dioxopiperidin-3-yl)-1-oxoisoindolin-4-yl)methyl)-2-oxoacetamide] the figure was below 25%.
As to `O=C1CCC(N2Cc3c(CNC(=O)C(=O)c4ccc(Br)cc4)cccc3C2=O)C(=O)N1` (stereo not drawn) [Compound I-106, 2-(4-bromophenyl)-N-((2-(2,6-dioxopiperidin-3-yl)-1-oxoisoindolin-4-yl)methyl)-2-oxoacetamide], the cytotoxicity at 1 µM was below 25%.
In the case of `Cc1ccc(N(C)C(=O)N(C)Cc2scc3c2CN(C2CCC(=O)NC2=O)C3=O)cc1Cl` (stereo not drawn) [II-20, 1-(3-chloro-4-methylphenyl)-3-((5-(2,6-dioxopiperidin-3-yl)-4-oxo-5,6-dihydro-4H-thieno[3,4-c]pyrrol-1-yl)methyl)-1,3-dimethylurea], the cytotoxicity at 1 µM is below 25%.
In the case of `Cc1ccc(CNC(=O)NCc2cc3c(s2)CN(C2CCC(=O)NC2=O)C3=O)cc1Cl` (stereo not drawn) [II-21, 1-(3-chloro-4-methylbenzyl)-3-((5-(2,6-dioxopiperidin-3-yl)-4-oxo-5,6-dihydro-4H-thieno[2,3-c]pyrrol-2-yl)methyl)urea], the cytotoxicity at 1 µM is 50 to 80%.
For `Cc1ccc(N(C)C(=O)NCc2scc3c2CN(C2CCC(=O)NC2=O)C3=O)cc1Cl` (stereo not drawn) [II-22, 1-(3-chloro-4-methylphenyl)-3-((5-(2,6-dioxopiperidin-3-yl)-4-oxo-5,6-dihydro-4H-thieno[3,4-c]pyrrol-1-yl)methyl)-1-methylurea], the cytotoxicity at 1 µM fell in the range of 50 to 80%.
Take `Cc1ccc(NCCCNCc2scc3c2CN(C2CCC(=O)NC2=O)C3=O)cc1Cl` (stereo not drawn) [II-23, 3-(1-(((3-((3-chloro-4-methylphenyl)amino)propyl)amino)methyl)-4-oxo-4H-thieno[3,4-c]pyrrol-5(6H)-yl)piperidine-2,6-dione]: the cytotoxicity at 1 µM is below 25%.
For the molecule `Cc1ccc(CC(=O)NCc2scc3c2CN(C2CCC(=O)NC2=O)C3=O)cc1Cl` (stereo not drawn) [II-24, 2-(3-chloro-4-methylphenyl)-N-((5-(2,6-dioxopiperidin-3-yl)-4-oxo-5,6-dihydro-4H-thieno[3,4-c]pyrrol-1-yl)methyl)acetamide], the cytotoxicity at 1 µM was below 25%.
With `O=C(Cc1ccc(F)cc1)NCc1scc2c1CN(C1CCC(=O)NC1=O)C2=O` (stereo not drawn) [II-25, N-((5-(2,6-dioxopiperidin-3-yl)-4-oxo-5,6-dihydro-4H-thieno[3,4-c]pyrrol-1-yl)methyl)-2-(4-fluorophenyl)acetamide] the figure was below 25%; with `Cc1cc(NC(=O)NCc2cc3c(s2)C(=O)N(C2CCC(=O)NC2=O)C3)ccc1N1CCOCC1` (stereo not drawn) [II-26, 1-((5-(2,6-dioxopiperidin-3-yl)-6-oxo-5,6-dihydro-4H-thieno[2,3-c]pyrrol-2-yl)methyl)-3-(3-methyl-4-morpholinophenyl)urea], below 25%.
In the case of `Cc1cc(NC(=O)NCc2cc3c(s2)C(=O)N(C2CCC(=O)NC2=O)C3)ccc1N1CCCC1` (stereo not drawn) [II-27, 1-((5-(2,6-dioxopiperidin-3-yl)-6-oxo-5,6-dihydro-4H-thieno[2,3-c]pyrrol-2-yl)methyl)-3-(3-methyl-4-(pyrrolidin-1-yl)phenyl)urea], the cytotoxicity at 1 µM is below 25%.
With `Cc1ccc(C(F)(F)C(=O)NCc2scc3c2CN(C2CCC(=O)NC2=O)C3=O)cc1Cl` (stereo not drawn) [II-28, 2-(3-chloro-4-methylphenyl)-N-((5-(2,6-dioxopiperidin-3-yl)-4-oxo-5,6-dihydro-4H-thieno[3,4-c]pyrrol-1-yl)methyl)-2,2-difluoroacetamide], the cytotoxicity at 1 µM is below 25%.
Take `Cc1ccc(C(F)(F)C(=O)NCc2scc3c2CN([C@H]2CCCC(=O)NC2=O)C3=O)cc1Cl` [II-29, (S)-2-(3-chloro-4-methylphenyl)-N-((5-(2,7-dioxoazepan-3-yl)-4-oxo-5,6-dihydro-4H-thieno[3,4-c]pyrrol-1-yl)methyl)-2,2-difluoroacetamide]: the cytotoxicity at 1 µM was below 25%.
On to `Cc1ccc(CC(=O)NCc2cc3c(s2)C(=O)N(C2CCC(=O)NC2=O)C3)cc1Cl` (stereo not drawn) [II-30, 2-(3-chloro-4-methylphenyl)-N-((5-(2,6-dioxopiperidin-3-yl)-6-oxo-5,6-dihydro-4H-thieno[2,3-c]pyrrol-2-yl)methyl)acetamide], for which the cytotoxicity at 1 µM was below 25%.
As for `Cc1ccc(NC(=O)NCCc2scc3c2CN(C2CCC(=O)NC2=O)C3=O)cc1Cl` (stereo not drawn) [II-31, 1-(3-chloro-4-methylphenyl)-3-(2-(5-(2,6-dioxopiperidin-3-yl)-4-oxo-5,6-dihydro-4H-thieno[3,4-c]pyrrol-1-yl)ethyl)urea], the cytotoxicity at 1 µM is above 80%.
`Cc1ccc(CNC(=O)NCCc2scc3c2CN(C2CCC(=O)NC2=O)C3=O)cc1Cl` (stereo not drawn) [II-32, 1-(3-chloro-4-methylbenzyl)-3-(2-(5-(2,6-dioxopiperidin-3-yl)-4-oxo-5,6-dihydro-4H-thieno[3,4-c]pyrrol-1-yl)ethyl)urea]: the cytotoxicity at 1 µM was above 80%.
Regarding `Cc1ccc(C=CC(=O)NCc2cc3c(s2)C(=O)N(C2CCC(=O)NC2=O)C3)cc1Cl` (stereo not drawn) [II-33, 3-(3-chloro-4-methylphenyl)-N-((5-(2,6-dioxopiperidin-3-yl)-6-oxo-5,6-dihydro-4H-thieno[2,3-c]pyrrol-2-yl)methyl)propenamide], the cytotoxicity at 1 µM is below 25%.
Take `Cc1ccc(C=CC(=O)NCc2scc3c2CN(C2CCC(=O)NC2=O)C3=O)cc1Cl` (stereo not drawn) [II-34, 3-(3-chloro-4-methylphenyl)-N-((5-(2,6-dioxopiperidin-3-yl)-4-oxo-5,6-dihydro-4H-thieno[3,4-c]pyrrol-1-yl)methyl)propenamide]: the cytotoxicity at 1 µM was above 80%.
Consider `O=C1CCC(N2Cc3cc(CNC(=O)NCc4c(Cl)cccc4Cl)sc3C2=O)C(=O)N1` (stereo not drawn) [II-36, 1-(2,6-dichlorobenzyl)-3-((5-(2,6-dioxopiperidin-3-yl)-6-oxo-5,6-dihydro-4H-thieno[2,3-c]pyrrol-2-yl)methyl)urea], for which the cytotoxicity at 1 µM lay within 50 to 80%.
For `O=C1CCC(N2Cc3c(csc3CNC(=O)NCc3c(Cl)cccc3Cl)C2=O)C(=O)N1` (stereo not drawn) [II-37, 1-(2,6-dichlorobenzyl)-3-((5-(2,6-dioxopiperidin-3-yl)-4-oxo-5,6-dihydro-4H-thieno[3,4-c]pyrrol-1-yl)methyl)urea], the cytotoxicity at 1 µM is above 80%.
`Cc1ccc(C(F)(F)C(=O)NCc2cc3c(s2)C(=O)N(C2CCC(=O)NC2=O)C3)cc1Cl` (stereo not drawn) [II-38, 2-(3-chloro-4-methylphenyl)-N-((5-(2,6-dioxopiperidin-3-yl)-6-oxo-5,6-dihydro-4H-thieno[2,3-c]pyrrol-2-yl)methyl)-2,2-difluoroacetamide]: the cytotoxicity at 1 µM was below 25%.
For `Cc1ccc(NC(=S)NCc2cc3c(s2)C(=O)N(C2CCC(=O)NC2=O)C3)cc1Cl` (stereo not drawn) [II-39, 1-(3-chloro-4-methylphenyl)-3-((5-(2,6-dioxopiperidin-3-yl)-6-oxo-5,6-dihydro-4H-thieno[2,3-c]pyrrol-2-yl)methyl)thiourea], the cytotoxicity at 1 µM was above 80%.
For the molecule `Cc1cnc(NC(=O)NCc2scc3c2CN(C2CCC(=O)NC2=O)C3=O)nc1C(F)(F)F` (stereo not drawn) [II-40, 1-((5-(2,6-dioxopiperidin-3-yl)-4-oxo-5,6-dihydro-4H-thieno[3,4-c]pyrrol-1-yl)methyl)-3-(5-methyl-4-(trifluoromethyl)pyrimidin-2-yl)urea], the cytotoxicity at 1 µM is below 25%.
With `Cc1ccc(CCCC(=O)NCc2scc3c2CN(C2CCC(=O)NC2=O)C3=O)cc1Cl` (stereo not drawn) [II-41, 4-(3-chloro-4-methylphenyl)-N-((5-(2,6-dioxopiperidin-3-yl)-4-oxo-5,6-dihydro-4H-thieno[3,4-c]pyrrol-1-yl)methyl)butanamide], the cytotoxicity at 1 µM is 25 to 50%.
Consider `O=C1CCC(N2Cc3cc(CNC(=O)Nc4c(Cl)cccc4Cl)sc3C2=O)C(=O)N1` (stereo not drawn) [II-42, 1-(2,6-dichlorophenyl)-3-((5-(2,6-dioxopiperidin-3-yl)-6-oxo-5,6-dihydro-4H-thieno[2,3-c]pyrrol-2-yl)methyl)urea], for which the cytotoxicity at 1 µM is below 25%.
Turning to `O=C1CCC(N2Cc3c(csc3CNC(=O)Nc3c(Cl)cccc3Cl)C2=O)C(=O)N1` (stereo not drawn) [II-43, 1-(2,6-dichlorophenyl)-3-((5-(2,6-dioxopiperidin-3-yl)-4-oxo-5,6-dihydro-4H-thieno[3,4-c]pyrrol-1-yl)methyl)urea], the cytotoxicity at 1 µM lay in the range of 25 to 50%.
With `CN(C)c1cc(NC(=O)NCc2cc3c(s2)C(=O)N(C2CCC(=O)NC2=O)C3)ccc1F` (stereo not drawn) [II-45, 1-(3-(dimethylamino)-4-fluorophenyl)-3-((5-(2,6-dioxopiperidin-3-yl)-6-oxo-5,6-dihydro-4H-thieno[2,3-c]pyrrol-2-yl)methyl)urea] the figure was above 80%; with `Cc1ccc(NC(=O)NCc2cc3c(s2)C(=O)N(C2CCC(=O)NC2=O)C3)cc1O` (stereo not drawn) [II-46, 1-((5-(2,6-dioxopiperidin-3-yl)-6-oxo-5,6-dihydro-4H-thieno[2,3-c]pyrrol-2-yl)methyl)-3-(3-hydroxy-4-methylphenyl)urea], 25 to 50%.
With `CCN(CC)c1cc(NC(=O)NCc2cc3c(s2)C(=O)N(C2CCC(=O)NC2=O)C3)ccc1C` (stereo not drawn) [II-47, 1-(3-(diethylamino)-4-methylphenyl)-3-((5-(2,6-dioxopiperidin-3-yl)-6-oxo-5,6-dihydro-4H-thieno[2,3-c]pyrrol-2-yl)methyl)urea] the figure was above 80%.
